Experimental data reported in article PMC8694143 (Microbiology Spectrum, 2021).

Legend:
Experiment in all cases: MIC determination in broth
Assay type in all cases: cell-based, Staphylococcus aureus
MRSA ATCC BAA-2313 = details: STIP3 variants, highest conc. tested 100 μg/mL; cation-adjusted MH broth, ~10^5 CFU/mL, 2-fold dilution series, 37°C, 16 h
Method: (§1) M. luteus ATCC 4698, S. aureus ATCC 29213, a panel of 7 MRSA (ATCC MP-2) strains, which includes ATCC BAA-41, BAA-42, BAA-44, BAA-1683, BAA-2094, BAA-2313, and 33592, and a series of additional bacterial isolates from human and veterinary cases were used in this study (Table S6). Bacterial strains were routinely grown in lysogeny broth (LB: 10 g/L tryptone, 5 g/L yeast extract, 10 g/L NaCl) at 30°C (M. luteus) or 37°C (Staphylococcus spp.) prior to use in specific experiments described below.
(§2) The MICs were measured for bioactive peptides identified from the initial screen. Cation-adjusted Mueller-Hinton (MH) broth was used as the growth medium for MIC determination experiments. Bacterial cultures were diluted to an OD of 5 × 10^−4 (∼10^5 CFU/mL) in 200 μL MH broth mixed with peptides in a 2-fold dilution series arrayed in 96-well plates. Plates were incubated without shaking at 30 or 37°C depending on the organism.

MRSA ATCC 33592 = details: Table S5; STIP3 variants, highest conc. tested 100 μg/mL; cation-adjusted MH broth, ~10^5 CFU/mL, 2-fold dilution series, 37°C, 16 h
Method: as §1, §2

MRSA ATCC BAA-41 = details: STIP3 variants, highest conc. tested 100 μg/mL; cation-adjusted MH broth, ~10^5 CFU/mL, 2-fold dilution series, 37°C, 16 h
Method: as §1, §2

MRSA ATCC BAA-2094 = details: STIP3 variants, highest conc. tested 100 μg/mL; cation-adjusted MH broth, ~10^5 CFU/mL, 2-fold dilution series, 37°C, 16 h
Method: as §1, §2

MRSA ATCC BAA-44 = details: STIP3 variants, highest conc. tested 100 μg/mL; cation-adjusted MH broth, ~10^5 CFU/mL, 2-fold dilution series, 37°C, 16 h
Method: as §1, §2

MRSA ATCC BAA-1683 = details: STIP3 variants, highest conc. tested 100 μg/mL; cation-adjusted MH broth, ~10^5 CFU/mL, 2-fold dilution series, 37°C, 16 h
Method: as §1, §2

S. aureus ATCC 29213 = details: STIP3 variants, highest conc. tested 100 μg/mL; cation-adjusted MH broth, ~10^5 CFU/mL, 2-fold dilution series, 37°C, 16 h
Method: as §1, §2

MRSA ATCC BAA-42 = details: STIP3 variants, highest conc. tested 100 μg/mL; cation-adjusted MH broth, ~10^5 CFU/mL, 2-fold dilution series, 37°C, 16 h
Method: as §1, §2

Substance | MIC, S. aureus ATCC BAA 2313 (SCCmec XI) (MRSA ATCC BAA-2313) | MIC, S. aureus ATCC 33592 (SCCmec III) (MRSA ATCC 33592) | MIC, S. aureus ATCC BAA 41 (SCCmec II) (MRSA ATCC BAA-41) | MIC, S. aureus ATCC BAA 2094 (SCCmec V) (MRSA ATCC BAA-2094) | MIC, S. aureus ATCC BAA 44 (SCCmec I) (MRSA ATCC BAA-44) | MIC, S. aureus ATCC BAA 1683 (SCCmec IV) (MRSA ATCC BAA-1683) | MIC, S. aureus ATCC 29213 (S. aureus ATCC 29213) | MIC, S. aureus ATCC BAA 42 (SCCmec VI) (MRSA ATCC BAA-42)
TVGGLVKWILKAVKKFA [STIP3-13, rationally designed STIP3-1 variant] | 25 µg/mL | 25 µg/mL | 12.5 µg/mL | 25 µg/mL | 25 µg/mL | 25 µg/mL | 25 µg/mL | 25 µg/mL
TVGGLVKWILKTVKKFA [STIP3-3, rationally designed STIP3-1 variant] | 50 µg/mL | 25 µg/mL | 25 µg/mL | 25 µg/mL | 25 µg/mL | 50 µg/mL | 25 µg/mL | 50 µg/mL
TVGGLVKWILNTVKKFA [STIP3-4, rationally designed STIP3-1 variant] | 100 µg/mL | 50 µg/mL | 50 µg/mL | 50 µg/mL | 50 µg/mL | 100 µg/mL | 100 µg/mL | 50 µg/mL
TVGVLVKWILNVVAKFA [STIP3-24, rationally designed STIP3-1 variant] | > (The > symbol indicates that no inhibition was observed at 100 μg/mL for the STIP3 variants) | > (The > symbol indicates that no inhibition was observed at 100 μg/mL for the STIP3 variants) | > (The > symbol indicates that no inhibition was observed at 100 μg/mL for the STIP3 variants) | > (The > symbol indicates that no inhibition was observed at 100 μg/mL for the STIP3 variants) | > (The > symbol indicates that no inhibition was observed at 100 μg/mL for the STIP3 variants) | > (The > symbol indicates that no inhibition was observed at 100 μg/mL for the STIP3 variants) | > (The > symbol indicates that no inhibition was observed at 100 μg/mL for the STIP3 variants) | > (The > symbol indicates that no inhibition was observed at 100 μg/mL for the STIP3 variants)
TVKALVKWILKTVAKFA [STIP3-19, rationally designed STIP3-1 variant] | 25 µg/mL | 25 µg/mL | 50 µg/mL | 25 µg/mL | 25 µg/mL | 25 µg/mL | 50 µg/mL | 50 µg/mL
TVKALVKWILKTVAKFW [STIP3-21, rationally designed STIP3-1 variant] | 12.5 µg/mL | 25 µg/mL | 25 µg/mL | 12.5 µg/mL | 25 µg/mL | 12.5 µg/mL | 25 µg/mL | 25 µg/mL
TVKALVKWILKTVAKFW-NH2 [STIP3-31, rationally designed STIP3-1 variant, C-terminal amide] | 25 µg/mL | 25 µg/mL | 25 µg/mL | 25 µg/mL | 25 µg/mL | 25 µg/mL | 25 µg/mL | 50 µg/mL
TVKFLVKWILKWVAKFA [STIP3-25, rationally designed STIP3-1 variant] | > (The > symbol indicates that no inhibition was observed at 100 μg/mL for the STIP3 variants) | > (The > symbol indicates that no inhibition was observed at 100 μg/mL for the STIP3 variants) | > (The > symbol indicates that no inhibition was observed at 100 μg/mL for the STIP3 variants) | > (The > symbol indicates that no inhibition was observed at 100 μg/mL for the STIP3 variants) | > (The > symbol indicates that no inhibition was observed at 100 μg/mL for the STIP3 variants) | > (The > symbol indicates that no inhibition was observed at 100 μg/mL for the STIP3 variants) | > (The > symbol indicates that no inhibition was observed at 100 μg/mL for the STIP3 variants) | > (The > symbol indicates that no inhibition was observed at 100 μg/mL for the STIP3 variants)
TVKGLVKWILATVKKFA [STIP3-16, rationally designed STIP3-1 variant] | 100 µg/mL | 50 µg/mL | 50 µg/mL | 100 µg/mL | 100 µg/mL | > (The > symbol indicates that no inhibition was observed at 100 μg/mL for the STIP3 variants) | 100 µg/mL | 50 µg/mL
TVKGLVKWILNVVKKFA [STIP3-14, rationally designed STIP3-1 variant] | 12.5 µg/mL | 12.5 µg/mL | 25 µg/mL | 50 µg/mL | 25 µg/mL | 25 µg/mL | 25 µg/mL | 25 µg/mL
TVKGLVKWILNVVKKFA-NH2 [STIP3-30, rationally designed STIP3-1 variant, C-terminal amide] | 25 µg/mL | 12.5 µg/mL | 25 µg/mL | 25 µg/mL | 12.5 µg/mL | 12.5 µg/mL | 12.5 µg/mL | 25 µg/mL
TVKKLVKWILKTVKKFA [STIP3-18, rationally designed STIP3-1 variant] | > (The > symbol indicates that no inhibition was observed at 100 μg/mL for the STIP3 variants) | 100 µg/mL | 100 µg/mL | 100 µg/mL | 100 µg/mL | > (The > symbol indicates that no inhibition was observed at 100 μg/mL for the STIP3 variants) | 100 µg/mL | > (The > symbol indicates that no inhibition was observed at 100 μg/mL for the STIP3 variants)
TVKVLVKWILKVVAKFA [STIP3-26, rationally designed STIP3-1 variant] | > (The > symbol indicates that no inhibition was observed at 100 μg/mL for the STIP3 variants) | > (The > symbol indicates that no inhibition was observed at 100 μg/mL for the STIP3 variants) | > (The > symbol indicates that no inhibition was observed at 100 μg/mL for the STIP3 variants) | > (The > symbol indicates that no inhibition was observed at 100 μg/mL for the STIP3 variants) | > (The > symbol indicates that no inhibition was observed at 100 μg/mL for the STIP3 variants) | > (The > symbol indicates that no inhibition was observed at 100 μg/mL for the STIP3 variants) | > (The > symbol indicates that no inhibition was observed at 100 μg/mL for the STIP3 variants) | > (The > symbol indicates that no inhibition was observed at 100 μg/mL for the STIP3 variants)
TVRALVKWILRTVAKFA [STIP3-20, rationally designed STIP3-1 variant] | 50 µg/mL | 25 µg/mL | 12.5 µg/mL | 25 µg/mL | 25 µg/mL | 25 µg/mL | 25 µg/mL | 25 µg/mL
